Results from patent EP0802184B1, “N-Benzyl-2-phenylindoles as estrogenic agents” (Wyeth, priority 1996, dated 1997).

Tests used:
Ishikawa cells = test: Ishikawa Cell Alkaline Phosphatase Assay; assay type: cell-based, human; conditions: 48 h
Experimental: Cells were treated for 48 h prior to assay. […] Sample population for at each dose was n=8. […] Plates are placed at -80°C for a minimum of 15 minutes. Plates are thawed at 37°C followed by the addition of 150μL of 0.1 M Tris-HCl, pH 9.8, containing 4 mM para-nitrophenylphosphate (pNPP) to each well (final concentration, 3 mM pNPP). Absorbance and slope calculations were made using the […] Application program (Bio-Tek Instruments, Inc., Winooski, VT). […] Various compounds were assayed for estrogenic activity by the alkaline phosphatase method and corresponding ED50 values (95% C.I.) were calculated. The four listed in the following were used as reference standards: A description of such methods is provided by Holinka, […]., Kuramoto, H. and Gurpide, E. (1986) Effects of steroid hormones and antisteroids on alkaline phosphatase activity in human endometrial cancer cells (Ishikawa Line). Cancer Research, 46:2771-2774, and by […]. and by […] simple and sensitive microtiter plate estrogen bioassay based on stimulation alkaline phosphatase in Ishikawa cells; […] Endocrinology, 6:2757-2762.

estrogen receptor [1] = target: T1, estrogen receptor (Homo sapiens, UniProt P03372); test: 2X VIT ERE Transfection Assay (Infection Luciferase Assay); assay type: cell-based; conditions: 24 h
T1 sequence (P03372 1-595): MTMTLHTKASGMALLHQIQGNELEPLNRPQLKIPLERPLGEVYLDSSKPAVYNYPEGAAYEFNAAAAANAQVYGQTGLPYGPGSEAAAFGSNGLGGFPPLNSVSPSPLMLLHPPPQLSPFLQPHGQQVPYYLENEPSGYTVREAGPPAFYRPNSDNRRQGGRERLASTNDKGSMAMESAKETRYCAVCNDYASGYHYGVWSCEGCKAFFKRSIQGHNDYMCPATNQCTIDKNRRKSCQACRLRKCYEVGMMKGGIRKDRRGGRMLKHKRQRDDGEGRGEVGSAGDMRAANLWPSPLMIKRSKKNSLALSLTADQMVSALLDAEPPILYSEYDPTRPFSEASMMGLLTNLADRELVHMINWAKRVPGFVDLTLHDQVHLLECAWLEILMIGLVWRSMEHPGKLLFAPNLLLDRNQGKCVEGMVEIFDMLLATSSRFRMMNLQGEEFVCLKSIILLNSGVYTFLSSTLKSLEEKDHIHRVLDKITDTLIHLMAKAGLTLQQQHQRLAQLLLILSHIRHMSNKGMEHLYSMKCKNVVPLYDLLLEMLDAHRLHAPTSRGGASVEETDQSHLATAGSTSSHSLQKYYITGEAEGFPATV
Experimental: Chinese Hamster Ovary cells (CHO) which had been stably transfected with the human estrogen receptor were maintained in DMEM + 10% fetal bovine serum (FBS). 48h prior to treatment the growth medium was replaced with DMEM lacking phenol red + 10% dextran coated charcoal stripped FBS (treatment medium). Cells were plated at a density of 5000 cells/well in 96-well plates containing 200 µL of medium/well.
Reporter DNA (Promega plasmid pGL2 containing two tandem copies of the vitellogenin ERE in front of the minimal thymidine kinase promoter driving the luciferase gene) was combined with the B-galactosidase expression plasmid pCH110 (Pharmacia) and carrier DNA (pTZ18U) in the following ratio: • 10uG of reporter DNA • 5uG of pCH110DNA • 5 uG of pTZ18U • 20 uG of DNA/1 mL of transfection solution
20 uL of this mixture was added to each well of cells and remained on the cells for 16 h. […] Each treatment condition was performed on 8 wells (n=8) which were incubated for 24 h prior to the luciferase assay.
After removing the PBS, 25 uL of Promega lysis buffer was added to each well and allowed to stand at room temperature for 15 min, followed by 15 min at -80°C and 15 min at 37°C. 20 uL of lysate was transferred to an opaque 96 well plate for luciferase activity evaluation and the remaining lysate (5 uL) was used for the B-galactosidase activity evaluation (normalize transfection). The luciferan substrate (Promega) was added in 100 uL aliquots to each well automatically by the luminometer and the light produced (relative light units) was read 10 seconds after addition.
To the remaining 5 uL of lysate 45 uL of PBS was added. Then 50 uL of Promega B-galactosidase 2X assay buffer was added, mixed well and incubated at 37°C for 1 hour. A plate containing a standard curve (0.1 to 1.5 milliunits in triplicate) was set up for each experimental run. The plates were analyzed on a Molecular Devices spectrophotometric plate reader at 410 nm. The optical densities for the unknown were converted to milliunits of activity by mathematical extrapolation from the standard curve.
The luciferase data was generated as relative light units (RLUs) accumulated during a 10 second measurement and automatically transferred to a JMP (SAS Inc) file where background RLUs were subtracted. The B-galactosidase values were automatically imported into the file and these values were divided into the RLUs to normalize the data. The mean and standard deviations were determined from a n=8 for each treatment. […] These techniques are described by Tzukerman, M.T., Esty, A., Santiso-Mere, D., Danielian, P., Parker, M.G., Stein, R.B., Pike, J.W. and McDonnel, D.P. (1994). Human estrogen receptor transactivational capacity was determined by both cellular and promoter context and mediated by two functionally distinct intramolecular regions (see Molecular Endocrinology, 8:21-30).

estrogen receptor [2] = target: T1, estrogen receptor; test: In vitro estrogen receptor binding assay (competition with [3H]-17β-estradiol); set-up: expressed in transfected cells; host or cells: CHO cells (ribosome-free cytosol); conditions: relative to 17β-estradiol=100; cytosol of CHO cells overexpressing the estrogen receptor
Experimental: CHO cells overexpressing the estrogen receptor were grown in 150 mm^2 dishes in DMEM + 10% dextran coated charcoal, stripped fetal bovine serum. The plates were washed twice with PBS and once with 10mM Tris-HCl, pH 7.4, 1mM EDTA. Cells were harvested by scraping the surface and then the cell suspension was placed on ice. Cells were disrupted with a hand-held motorized tissue grinder using two, 10-second bursts. The crude preparation was centrifuged at 12,000g for 20 minutes followed by a 60 minute spin at 100,000g to produce a ribosome free cytosol. The cytosol was then frozen and stored at -80°C. Protein concentration of the cytosol was estimated using the BCA assay with reference standard protein.
100uG/100uL of the receptor preparation was aliquoted per well. […] The plate was incubated at room temperature for 2.5 h. At the end of this incubation period 150 uL of ice-cold dextran coated charcoal (5% activated charcoal coated with 0.05% 69K dextran) was added to each well and the plate was immediately centrifuged at 99g for 5 minutes at 4°C. 200 uL of the supernatant solution was then removed for scintillation counting. Samples were counted to 2% or 10 minutes, whichever occurs first. […] Also, wells containing radioactivity but no cytosol were processed with charcoal to estimate unremovable DPM of [^3H]
Counts per minute (CPM) of radioactivity were automatically converted to disintegrated per minute (DPM) by the Beckman LS 7500 Scintillation Counter using a set of quenched standards to generate a H# for each sample.
For the generation of IC50 curves, % binding is plotted vs compound. […] For a description of these methods, see Hulme, E.C., ed. 1992. Receptor-Ligand Interactions: A Practical Approach. IRL Press, New York.(see especially chapter 8).

Cc1c(-c2ccc(O)cc2)n(Cc2ccc(C#CCN3CCCCC3)cc2)c2ccc(O)cc12 [Example 22, 2-(4-Hydroxy-phenyl)-3-methyl-1-[4-(3-piperidin-1-yl-prop-1-ynyl)-benzyl]-1H-indol-5-ol]
% Activation (Compound + 1 nM 17β-estradiol) (Ishikawa cells; 10^-6 M compound + 10^-9 M 17β-estradiol): 23%
% Activation (Ishikawa cells; compound alone, percent of response related to 1 nM 17β-estradiol): 27%
% Activation with 1 nM 17β-estradiol (estrogen receptor [1]; 1 uM compound + 1 nM 17β-estradiol (test for estrogen antagonism)): 19%
% Activation (estrogen receptor [1]; compound alone (1 uM), compared to 17β-estradiol): 17%
Estrogen Receptor Affinity (reported as RBA: 17β-estradiol=100) (estrogen receptor [2]): 23
